Assay results from PubChem BioAssay AID2202556 (NIEHS Division of Translational Toxicology (DTT)).
Records with an inconclusive call do not appear. Active and inactive are the calls of the source. No rule for the calls is given here.

Test system: in vivo alkaline comet assay, DNA damage, mouse/rat
Test: In vivo alkaline comet assay, summary data
Excerpt: The comet assay examines the ability of substances to cause DNA damage in cells from a variety of different tissues, such as liver, stomach, lung, or brain.
There are multiple forms of DNA damage, including DNA adducts (addition of a chemical structure to a DNA base), oxidative damage to DNA, and breaks in one or both strands. The comet assay can detect single and double strand breaks, DNA adducts, and DNA crosslinks, as well as breaks along the DNA strand that are produced during the normal processes of DNA repair or replication. Thus, the comet assay provides a snapshot of the balance between DNA damage and DNA repair at the time the tissue was harvested.
The DNA damage detected by the comet assay can resolve in several ways. The damage is most often rapidly and correctly repaired. Alternately, a cell that sustains DNA damage may die without passing the damage on to daughter cells following cell division. However, if the damage is not repaired or is repaired incorrectly, the daughter cells may inherit the damage as mutations or chromosome breaks, which are found in many human diseases including cancer. The outcome of the detected DNA damage is unknown.
The comet assay provides the advantage of being able to look at chemical effects on DNA in tissues other than bone marrow, which is the main source of cells used to examine chemical-induced chromosome damage and mutation induction in animals (see Micronucleus Assay).
Animals (rats or mice) are treated with a test substance once or multiple times, and DNA damage is usually evaluated 3-6 hours after the final treatment.
The animal tissue is rapidly minced in a buffer solution, combined with agarose, and layered onto slides. The slides are placed in a solution that removes the cellular and nuclear membranes and cellular proteins, leaving behind the nuclear DNA. The slides are then incubated in an alkaline solution (pH > 13) to convert alkali-labile sites into strand breaks and allow the DNA to unwind. Next, the slides are subjected to an electrical field in a tank filled with a buffer solution. Broken DNA, having a negative charge, migrates out of the area of the nucleus toward the positively charged anode. This forms a comet-like shape with the nucleus at the "head" and the migrated DNA as the "tail." All steps of the method are performed using ice-cold solutions and buffers. After this process, the DNA is stained with a fluorescent dye and cells are analyzed using Comet Assay IV Imaging Software.
For each cell, DNA migration is analyzed using an automated software system attached to a microscope. The extent of damage is characterized as the percent tail DNA (how much DNA migrated to the tail, compared to the total DNA as a percentage). At least 100 cells per sample are evaluated; current guidelines for the assay recommend analysis of at least 150 cells per sample. The data is statistically analyzed to determine if there is a significant increase in percent tail DNA in chemical-exposed animals compared to the controls (animals not exposed).
Dose-related responses, as well as significant dose groups, are considered during the evaluation of the data. For a positive test, both a dose response and at least one significant dose group are required. If only one of these measures is present, the test is considered to be equivocal. The absence of either condition results in a negative test. The final conclusions for comet assays are determined by considering the results of statistical analyses, reproducibility of any observed effects, and the magnitude of the effects. Ultimately, both biological and statistical significance are considered when reaching a final conclusion.
For more details, please refer to the original protocol: https://ntp.niehs.nih.gov/research/apptoxres/genetic and publication: https://www.ncbi.nlm.nih.gov/pubmed/26212309

SMILES | outcome
CNNC | active
c1ccoc1 | active; positive
CNC(=O)Oc1cccc2ccccc12 | active
ClCC1CO1 (centres undefined) | active; positive
[O]=[Sb][O][Sb]=[O] | active; positive
CC(=O)CC(C)=O | active; positive
C=CC1(C)OC(=O)N(c2cc(Cl)cc(Cl)c2)C1=O (centres undefined) | active; positive
NC(=O)NO | active; positive
O=C([O-])[O-].O=C([O-])[O-].[OH-].[OH-].[OH-].[OH-].[OH-].[OH-].[Zn+2].[Zn+2].[Zn+2].[Zn+2].[Zn+2] | active
C=CC(N)=O | active; positive
CCOS(C)(=O)=O | active
OC(CCl)CCl | active; positive
CCNC(=O)CC(C)=O | active; positive
NC(=O)CC(N)=O | active; positive
Nc1nc(=O)n([C@@H]2CS[C@H](CO)O2)cc1F | active; positive
Cc1ccc(N(C)C)cc1 | active; negative
CC(C)c1ccccc1 | active; positive
C=CC(=O)NC(C)(C)C | active; positive
CC[C@]1(O)C[C@H]2CN(CCc3c([nH]c4ccccc34)[C@@](C(=O)OC)(c3cc4c(cc3OC)N(C=O)[C@H]3[C@@](O)(C(=O)OC)[C@H](OC(C)=O)[C@]5(CC)C=CCN6CC[C@]43[C@@H]65)C2)C1 | active
